According to patent EP0612472A1, “Herbicidal combinations comprising triazole derivatives (III)” (MONSANTO EUROPE S.A., priority 1993, dated 1994):

Test system: Galium aparine
Assay: field experiment, tank mix, Belgium
Type: in vivo
Description: A field experiment has been carried out during winter time (November 1990) in Belgium.
Application was made at 250 l/ha using standard spraying equipment (Backpack sprayer; Nozzles XR 11003). Randomised block design with 3 replicates was used. Unit plot size was 2 X 6m². The soil surface was moist. Total ground cover: 20% crop, 10% weeds and 70% bare ground.
The plant species tested and corresponding true leave stage are:
The herbicides tested are the herbicide A as described in Example 1 in tank mix with another phytohormone type of herbicide, that is mecoprop. 0.2% surfactant (Tween® 20) has been added to the tank.
The results in table 2 hereafter are presented as average values of three replications.

## Cc1cc(Cl)ccc1OC(C)C(=O)O (centres unmarked) [mecoprop]
RATE 1000 g a.i/ha
  control, GALAP 120 DAT: 73.3%
RATE 1200 g a.i/ha
  control, GALAP 120 DAT: 66.7%
